Data on 20 molecules can be found in the C3SDB collision cross section collection.

Where “and” joins values, the source holds several entries; their conditions need not be identical. Equal entries are not always repeated.

For the first series the following is noted: [M+Na]+; instrument: DT; stepped-field.
As for `OC[C@H]1O[C@@](CO)(O[C@H]2O[C@H](CO)[C@@H](O)[C@H](O)[C@H]2O)[C@@H](O[C@H]2O[C@H](CO)[C@@H](O)[C@H](O)[C@H]2O)[C@@H]1O` [Melezitose], the “collision cross section (N2)” value is listed as 203.23 Å².

For the next series the following is noted: [M+Cs]+; instrument: DT; stepped-field.
For `OC[C@H]1O[C@@](CO)(O[C@H]2O[C@H](CO)[C@@H](O)[C@H](O)[C@H]2O)[C@@H](O[C@H]2O[C@H](CO)[C@@H](O)[C@H](O)[C@H]2O)[C@@H]1O` [Melezitose], the “collision cross section (N2)” value is reported as 205.8 Å².

Still in this series, the particulars now being: [M+H]+; instrument: DT; stepped-field.
`OC[C@H]1O[C@@](CO)(O[C@H]2O[C@H](CO)[C@@H](O)[C@H](O)[C@H]2O)[C@@H](O[C@H]2O[C@H](CO)[C@@H](O)[C@H](O)[C@H]2O)[C@@H]1O` [Melezitose]: the “collision cross section (N2)” value was determined as 202.6 Å². Turning to `CC(C)[C@H](N)C(=O)N[C@@H](Cc1ccccc1)C(=O)N[C@@H](C)C(=O)N[C@@H](CC(=O)O)C(=O)N[C@@H](Cc1ccc(O)cc1)C(=O)N[C@@H](CCC(=O)O)C(=O)N[C@@H](CCC(=O)O)C(=O)N[C@@H](Cc1ccc(O)cc1)C(=O)N[C@H](C(=O)N[C@@H](CCCCN)C(=O)O)C(C)C` [VFADYEEYVK], the “collision cross section (N2)” value is recorded as 366.4 Å². In the case of `CCC(C)[C@H](NC(=O)[C@@H](N)C(C)C)C(=O)N[C@@H](Cc1ccccc1)C(=O)N[C@@H](CC(C)C)C(=O)N[C@@H](CCC(=O)O)C(=O)N[C@@H](CC(N)=O)C(=O)N[C@@H](Cc1ccc(O)cc1)C(=O)N[C@@H](CCCNC(=N)N)C(=O)O` (stereo not given in full) [VIFLENYR], the “collision cross section (N2)” value is on record as 318.3 Å². On the same count and under the same terms, then `CC(C)C[C@H](NC(=O)[C@H](C)NC(=O)[C@H](CO)NC(=O)[C@@H](N)C(C)C)C(=O)N[C@@H](Cc1ccc(O)cc1)C(=O)N[C@@H](CCCCN)C(=O)O` [VSALYK], with 261.8 Å² and 254 Å²; and `CC(C)C[C@H](NC(=O)[C@H](CO)NC(=O)[C@@H](N)C(C)C)C(=O)N[C@@H](C)C(=O)N[C@@H](CCC(=O)O)C(=O)N[C@@H](CCCCN)C(=O)O` [VSLAEK], with 249 Å².

Staying with this series, now noted: [M+K]+; instrument: DT; stepped-field.
Regarding `OC[C@H]1O[C@@](CO)(O[C@H]2O[C@H](CO)[C@@H](O)[C@H](O)[C@H]2O)[C@@H](O[C@H]2O[C@H](CO)[C@@H](O)[C@H](O)[C@H]2O)[C@@H]1O` [Melezitose], the “collision cross section (N2)” value was found to be 221.9 Å². As to `CC/C=C\C/C=C\C/C=C\C/C=C\CCCCC(=O)OC[C@H](COP(=O)([O-])OCC[N+](C)(C)C)OC(=O)CCCCCCCCCCCCCCCC` [PC(35:4)], the “collision cross section (N2)” value is reported as 294.5 Å². Consider `CCCC/C=C\C/C=C\CCCCCCCC(=O)OC[C@H](COP(=O)([O-])OCC[N+](C)(C)C)OC(=O)CCCC/C=C\C/C=C\C/C=C\CCCCC` [PC(35:5)], for which the “collision cross section (N2)” value turned out to be 293.8 Å². Regarding `CCCCC/C=C\C/C=C\C/C=C\C/C=C\CCCCCC(=O)O[C@H](COC(=O)CCCCCCC/C=C\CCCCC)COP(=O)([O-])OCC[N+](C)(C)C` [PC(37:5)], the “collision cross section (N2)” value amounted to 299 Å². In the case of `CC/C=C\C/C=C\C/C=C\C/C=C\C/C=C\C/C=C\CCC(=O)O[C@H](COC(=O)CCCCCCC/C=C\CCCCC)COP(=O)([O-])OCC[N+](C)(C)C` [PC(37:7)], the “collision cross section (N2)” value stood at 296.6 Å². In the case of `CC/C=C\C/C=C\C/C=C\C/C=C\C/C=C\CCCCCC(=O)O[C@H](COC(=O)CCCCCCCCCCCCCCCC)COP(=O)([O-])OCC[N+](C)(C)C` [PC(39:5)], the “collision cross section (N2)” value came out at 304.7 Å². Turning to `CCCCCCC=CCC=CCC(=O)OC[C@H](COP(=O)(O)OCCN)OC(=O)CC=CCC=CCCCCCC` [PE(26:4)], the “collision cross section (N2)” value was found to be 245.4 Å². Consider `CCCC=CCC=CCC=CCC(=O)OC[C@H](COP(=O)(O)OCCN)OC(=O)CC=CCC=CCC=CCCC` [PE(26:6)], for which the “collision cross section (N2)” value was found to be 241.7 Å².

With `CCCCCCCCCCCCCCCCC(=O)O[C@H](COC(=O)CCCCCCCCCCCCCCC)COP(=O)(O)OCCN` [PE(33:0)], the “collision cross section (N2)” value is listed as 277.2 Å².

In the case of `CCCCCCCCCCCCCCCCCCC(=O)O[C@H](COC(=O)CCCCCCCCCCCCCCC)COP(=O)(O)OCCN` [PE(35:0)], the “collision cross section (N2)” value worked out at 286.2 Å². With `CCCCC/C=C\C/C=C\CCCCCCCCCC(=O)OC[C@H](COP(=O)(O)OCCN)OC(=O)CCCCCCCCCCCCCCCCCC` [PE(39:2)], the “collision cross section (N2)” value was determined as 295.9 Å². On to `CCCCC/C=C\C/C=C\CCCCCCCCCC(=O)O[C@H](COC(=O)CCCCCCC/C=C\CCCCCCCCC)COP(=O)(O)OCCN` [PE(39:3)], for which the “collision cross section (N2)” value is listed as 293.4 Å². For the molecule `CCCCCCC/C=C\CCCCCCCC(=O)O[C@H](COC(=O)CCCCCCCCC/C=C\CCCCCCCC)COP(=O)(O)OC[C@H](N)C(=O)O` [PS(37:2)], the “collision cross section (N2)” value is given as 293 Å². Consider `OC[C@H]1OC(OC[C@H]2OC(O[C@]3(CO)O[C@H](CO)[C@@H](O)[C@@H]3O)[C@H](O)[C@@H](O)[C@@H]2O)[C@H](O)[C@@H](O)[C@H]1O` (stereo not given in full) [Raffinose], for which the “collision cross section (N2)” value worked out at 212.7 Å².

The same series, now with this note: [M+Li]+; instrument: DT; stepped-field.
For `OC[C@H]1O[C@@](CO)(O[C@H]2O[C@H](CO)[C@@H](O)[C@H](O)[C@H]2O)[C@@H](O[C@H]2O[C@H](CO)[C@@H](O)[C@H](O)[C@H]2O)[C@@H]1O` [Melezitose], the “collision cross section (N2)” value is listed as 202.9 Å².

The same series, now with this note: [M+Na]+; instrument: DT; stepped-field.
With `OC[C@H]1O[C@@](CO)(O[C@H]2O[C@H](CO)[C@@H](O)[C@H](O)[C@H]2O)[C@@H](O[C@H]2O[C@H](CO)[C@@H](O)[C@H](O)[C@H]2O)[C@@H]1O` [Melezitose], the “collision cross section (N2)” value amounted to 202.7 Å². Consider `CC/C=C\C/C=C\C/C=C\C/C=C\C/C=C\CCCC(=O)O[C@H](COC(=O)CCCC/C=C\C/C=C\C/C=C\CCCCC)COP(=O)([O-])OCC[N+](C)(C)C` [PC(38:8)], for which the “collision cross section (N2)” value is 299.9 Å².

As for `CCCC=CCC=CCC=CCC=CCC=CCC(=O)OC[C@H](COP(=O)(O)OCC[N+](C)(C)C)OC(=O)CC=CCC=CCC=CCC=CCC=CCCC` [PC(38:10)], the “collision cross section (N2)” value is reported as 295.9 Å².
